What was measured:
[1] = system: IMQ-induced psoriasis-like skin lesions in mice; assay: Imiquimod-induced psoriasis in mice, topical treatment; format: in vivo, male C57 mice; conditions: topical 5% solution
Procedure: The 8 to 10 week old male C57 mice (18-20 g) received a daily topical dose of commercially available Imiquimod (IMQ) cream (5%, Imiquad;) on the shaved back and the right ear for 5 consecutive days, translating in a daily dose of 3.125 mg of the active compound to establish a model of IMQ-induced psoriasis. To examine the efficacy of topical solution of compound of formula (Ia), mice were randomly divided into 3 groups: IMQ-induced model group (IMQ) and IMQ + 5% compound of formula (Ia) solution and control group. Treatment was started on day 1 after the topical application of IMQ and continued upto day 5. All animals were assessed for the severity of the psoriasis-like skin condition, using 3 elements of the Psoriasis Area Severity Index (PASI), to assign a score of 0-4 (0, none; 1, mild; 2, moderate; 3, severe; 4, very severe) for each of the parameters erythema, scaling and thickness. The cumulative score (erythema plus scaling plus thickness) served to indicate the severity of inflammation (scale 0-12). Ear thickness was measured every day using thickness meter.

[2] = system: Mannan-induced psoriasis in mice; assay: Mannan-induced psoriasis in mice, topical treatment; format: in vivo, male C57 mice; conditions: topical 2.5% solution, day 5, FIG. 3
Procedure: The 8- to 10-week-old male C57 mice (18-20 g) received a single dose of mannan from Saccharomyces cerevisiae (20 mg/kg, intraperitoneal route, dissolved in saline). To examine the efficacy of topical solution of desidustat, mice were randomly divided into 3 groups: Normal control, mannan control- model group (MAN control), and mannan (MAN) + 2.5% compound of formula (Ia) solution. Normal control animals were given normal saline instead of mannan. Treatment was started on day 0 along with injection of mannan and continued up to day 5. Right ear thickness was measured every day using thickness meter.

HIF = conditions: animal model of anemia; Jain et al., 2019; Joharapurkar et al., 2018; cited from earlier work
[3] = clinical trials; cited from earlier work

O=C(O)CNC(=O)c1c(O)c2ccccc2n(OCC2CC2)c1=O [compound of formula (Ia), Desidustat]
reduction of back skinfold thickness compared to IMQ ([1]; FIG. 2B): 15.5 ± 4.0%
PASI score decreased to, compared with IMQ-control ([1]; cumulative score, FIG. 1D): 41.9 ± 7.6%
reduction of erythema score (second mention) compared with IMQ-control ([1]; day 1 to day 5, FIG. 1A-C): 63.6 ± 11.5%
reduction of erythema score compared with IMQ-control ([1]; day 1 to day 5, FIG. 1A-C): 46.2 ± 7.7%
reduction of skin thickness score compared with IMQ-control ([1]; day 1 to day 5, FIG. 1A-C): 26.3 ± 10.4%
thickening of the ear reduced to, compared to IMQ-control ([1]; right ear, FIG. 2A): 30.8 ± 2.6%
reduction of right ear thickness compared to MAN control group [2]: 15.8 ± 2.5%
effect on HIF and erythropoiesis (HIF): stabilizes HIF and thus induces erythropoiesis
effect on haemoglobin [3]: improves haemoglobin
